# According to US20040137052A1, “Acid-containing preparations” (priority 2001, published 2004):
# How the values were obtained:
# [1] = Solubility of compound A in Britton-Robinson buffer at each pH; assay type: physicochemical; conditions: 20° C., 30 minutes
# Description: Regarding a compound A, the solubility was measured by measuring the solubility in the Britton-Robinson buffer at 20° C. at each pH of pHs 1, 3, 5, 7, 9, 11 and 13. The compound A was added to a solution at each pH, the mixture was vigorously stirred for 30 seconds every 5 minutes, and an amount of a physiologically active substance dissolved at a time point of 30 minutes was measured (according to a method of confirming the solubility described in Japanese Pharmacopoeia, general rules).
SMILES,melting point [°C],solubility on an acidic side or an alkaline side ([1]; acidic or alkaline pH),solubility at neutral pH ([1]; neutral pH)
"CCOC(=O)CNC(=O)c1cn2nc(NCCCN3CCC(OC(c4ccccc4)c4ccccc4)CC3)ccc2n1 (hydrate or solvate) [Reference Example 7, N-[6-[3-[4-(diphenylmethoxy)piperidino]propylamino]imidazo[1,2-b]pyridazine-2-carbonyl]glycine ethyl ester]",172 to 174,,
"CC(C)(C(=O)O)c1cn2nc(NCCCN3CCC(OC(c4ccccc4)c4ccccc4)CC3)ccc2n1.O.O (hydrate or solvate) [compound A, 2-[6-[3-[4-(diphenylmethoxy)piperidino]propylamino]imidazo[1,2-b]pyridazin-2-yl]-2-methylpropionic acid dihydrate]",203 to 205,,
"CC(C)(C(=O)O)c1cn2nc(NCCCN3CCC(OC(c4ccccc4)c4ccccc4)CC3)ccc2n1 [Reference Example 4, 2-[6-[3-[4-(diphenylmethoxy)piperidino]propylamino]imidazo[1,2-b]pyridazin-2-yl]-2-methylpropionic acid]",205 to 206,,
"CC(C)(C(=O)O)c1cn2nc(NCCCN3CCC(OC(c4ccccc4)c4ccccc4)CC3)ccc2n1.O.O [compound A, 2-[6-[3-[4-(diphenylmethoxy)piperidino]propylamino]imidazo[1,2-b]pyridazin-2-yl]-2-methylpropionic acid dihydrate]",,enhanced solubility,hardly dissolved
